What was measured:
Format in all cases: cell-based, Staphylococcus aureus
[1] = system: S. aureus RC11; conditions: resistant clone of S. aureus ATCC 29213; ClpP Q82→P (ClpP core; α3)
Description: (§1) Determination of antibacterial activity: ADEP1 was purified from the culture supernatant of S. hawaiiensis NRRL 15010 as described.4 ADEPs 2, 4, 7, 9 were custom synthesised by EMC Microcollections, Tübingen, or provided by AiCuris, Wuppertal, Germany. The minimal inhibitory concentration (MIC) was determined by broth microdilution in Mueller‐Hinton broth (without cation adjustment) according to the guidelines of the Clinical Laboratory Standards Institute (CLSI).69 The inoculum was set to 5×10^4 CFU mL^−1 to allow some distance to the determined spontaneous resistance frequencies. […] All other ADEPs were used from DMSO stock solutions kept at −20 °C.
(§2) Screening for ADEP‐resistant mutants and determination of resistance rates: Single colonies of wild‐type strains grown on Mueller‐Hinton agar plates overnight were suspended in sterile saline and a final inoculum of 5×10^6 cells was spread on plates supplemented with different ADEP congeners at 4× and 10× the MIC. For B. subtilis strain 3xclpP, ADEP7‐containing Mueller‐Hinton agar plates were additionally supplemented with 1 mM IPTG. Resistant colonies were counted after 24 h at 37 °C and colonies were randomly chosen for MIC determinations and sequencing. Mutations in the clpP gene of the respective isolated mutants were analysed by amplifying the clpP gene (and upstream promoter region) by PCR and sequencing of the resulting PCR amplicons (LGC genomics). Sequencing data were analysed by using SnapGene software (GSL Biotech).

[2] = system: S. aureus RC15; conditions: resistant clone of S. aureus ATCC 29213; ClpP E52→STOP, premature stop
Description: as §1, §2

[3] = system: S. aureus RC3; conditions: resistant clone of S. aureus 133; ClpP A133→T, ring-ring interaction
Description: as §1, §2

[4] = system: S. aureus RC4; conditions: resistant clone of S. aureus 133; ClpP N173→D, ring-ring interaction
Description: as §1, §2

[5] = system: S. aureus RC8; conditions: resistant clone of S. aureus ATCC 29213; Δ107 nt, C-terminal truncation
Description: as §1, §2

Measured: MIC

C[C@@H]1C[C@H]2C(=O)OC[C@H](NC(=O)[C@H](Cc3cc(F)cc(F)c3)NC(=O)CCC3CCCCC3)C(=O)N3CCC[C@H]3C(=O)N3CCCC[C@H]3C(=O)N[C@@H](C)C(=O)N2C1 [ADEP2]
>64 µg/mL: [1] | [2] | [3] | [4] | [5]

Source: article PMC7496096, “Functional Characterisation of ClpP Mutations Conferring Resistance to Acyldepsipeptide Antibiotics in Firmicutes” (Chembiochem, 2020)
